Assay results: patent US7267815B2, “Methods and reagents for the enhancement of virus transduction in the bladder epithelium” (priority 2002, dated 2007)
Counter-ions that a name gives are not always drawn. Like-named read-outs stand apart in the source and are kept apart here.

Experiments:
bladder epithelium [1] = assay: Transduction efficacy of exemplary pretreatment agents (summary Table 7); type: in vivo, mouse; settings: pretreatment agent
adenovirus [2] = assay: Study #3: compatibility of adenovirus with selected enhancers (plaque assay); type: physicochemical
Protocol: For this study, each sample was incubated at 37° C. or 25° C. before the plaque assay started.

bladder = assay: Histopathology of bladders after chemical agent pretreatment (pathologists report); type: in vivo, mouse (BALB/c)
Source text: Bladders fixed in whole organ fixative were sectioned and stained with hematoxylin-eosin for histologic examination.

bladder epithelium [3] = assay: Effect of chemical agent pretreatment on adenovirus-mediated gene transfer and expression (Ad-βgal, X-gal staining); type: in vivo, mouse (BALB/c); settings: for effect on transduction (in words): bladder pretreatment followed by Ad-LacZ
Protocol: 152 female BALB/c mice were used this study.
The route of administration of the chemical agent and virus was intravesical.
3. Based on the reagent being tested, bladder pretreatment was performed as follows:
Poloxomer 407 procedure: Washed 2 times with 100 μl each. Retained the 3rd wash for 5 min and gave one additional wash. Performed 3 times PBS wash prior to virus instillation.
Poloxomer 188 procedure: Washed 2 times with 100 μl each. Retained the 3rd wash for 5 minutes and gave one additional wash. Performed 3 times PBS wash prior to virus instillation.
Lipofectamine 2000 procedure: Added 5 μl of stock Lipofectamine (1 mg/ml) to 195 μl of PBS-10% glycerol. Mixed with an equal volume of Ad-βgal virus and incubated for 15 minutes. Administered 100 μl of the mixture intravesically and retained in the bladder for 30 minutes.
Benzyl Alcohol procedure: Washed 2 times with 100 μl each. Retained the 3rd wash for 15 minutes and then gave one additional wash. Performed 3 times PBS wash prior to virus instillation.
Performed 3 times PBS wash prior to virus instillation.
Polidocanol procedure: Washed 2 times with 100 μl each. Retained the 3rd wash for 5 min and then gave one additional wash. Performed 3 times PBS wash prior to virus instillation.
DC-Cho procedure: Washed 2 times with 100 μl each. Retained the 3rd wash for 5 min and then gave one additional wash. Performed 3 times PBS wash prior to virus instillation.
0.4% HPMC 2910 procedure: No pretreatment. An equal volume of the virus was mixed with 0.8% solution of HPMC2910 and the mixture was instilled into the bladder for 30 minutes.
100 mg/ml Poly-Lysine procedure: No pretreatment. An equal volume of the virus was mixed with 100 mg/ml solution of Poly-Lysine and the mixture was instilled into the bladder for 30 minutes.
0.4% polyvinyl alcohol (PVA) procedure: No pretreatment. An equal volume of the virus was mixed with 0.8% solution of PVA and the mixture was instilled into the bladder for 30 minutes.
n-dodecyl-β-D glucopyranoside procedure: Washed 2 times with 100 μl each. Retained the 3rd wash for 5 min and then gave one additional wash. Performed 3 times PBS wash prior to virus instillation.
0.4% PVP procedure: No pretreatment. An equal volume of the virus was mixed with 0.8% solution of PVP and the mixture was instilled into the bladder for 30 min.
0.1% cholesterol-cyclodextrin reagent procedure: No pretreatment. An equal volume of the virus was mixed with 0.2% solution of Cholesterol-Cyclodextrin and the mixture was instilled into the bladder for 30 minutes.
n-dodecyl-β-D-maltoside procedure: Washed 2 times with 100 μl each. Retained the 3rd wash for 5 min and then gave one additional wash. Performed 3 times PBS wash prior to virus instillation.
Sodium salt of dodecyl benzenesulfonic acid procedure: Washed 2 times with 100 μl each. Retained the 3rd wash for 5 min and then gave one additional wash. Performed 3 times PBS wash prior to virus instillation.
0.1% sodium dodecyl sulphate procedure: Wash 2 times with 100 μl each. Retained the 3rd wash for 5 min and then gave one additional wash. Performed 3 times PBS wash prior to virus instillation.
0.1% Tween 20 procedure: Washed 2 times with 100 μl each. Retained the 3rd wash for 5 min and then gave one additional wash. Performed 3 times PBS wash prior to virus instillation.
0.1% Triton® X-100 procedure: Washed 2 times with 100 μl each. Retained the 3rd wash for 5 min and then gave one additional wash. Perform 3 times PBS wash prior to virus instillation.
0.1% Forlan C-24 procedure: Washed 2 times with 100 μl each. Retained the 3rd wash for 5 min and then gave one additional wash. Performed 3 times PBS wash prior to virus instillation.
0.1% decyl-b-D-maltoside procedure: Washed 2 times with 100 μl each. Retained the 3rd wash for 5 min and then gave one additional wash. Performed 3 times PBS wash prior to virus instillation.
0.1% 6-cyclohexylhexyl-b-D-maltoside procedure: Washed 2 times with 100 μl each. […]

adenovirus [4] = assay: Study #4: degradation of adenovirus by SDS (anion exchange chromatography); type: physicochemical; settings: 37° C.
Protocol: A series of experiments were preformed on samples of adenovirus incubated at 37° C. for 15-30 minutes in various concentrations of SDS. The resulting material was examined by anion exchange chromatography.

adenovirus (Ad-LacZ) = assay: Study #5: adenovirus stability after incubation with 0.1% SDS or 0.1% DDM (plaque assay); type: physicochemical; settings: 0.1% solution, one hour at 25° C. or 37° C.
Protocol: In this study, adenovirus (Ad-LacZ) preparations (1.0×10^12 vp/ml) were mixed with solutions of SDS or DDM to obtain a mixture of adenovirus and each of these surfactants. […] These samples were incubated at 25° C. or 37° C. for one hour before freezing. They were sent to assay services for plaque assay analysis.

[5] = tested on: SD rat bladder epithelium; assay: Adenovirus dose titration with SDS or DDM pretreatment; type: in vivo, Sprague Dawley Rat; settings: 0.1% pretreatment
Source text: All the animals had >90% in Ad-βgal gene expression in mice bladder. Adenovirus Dose Titration with Different Chemical Agents Pretreatment on SD Rat Bladder Epithelium • Species: Female Sprague Dawley Rat (Taconic Laboratory)—2/group • Study Design: To test the virus infectivity of rat bladder epithelium with different doses of Adenovirus following the pretreatment with SDS or DDM. This study also explored relationship between bladder volume and residual of SDS or DDM for adenovirus infectivity. • Dose/Route:
Rat bladders infected with 4×10^10 vp adenovirus achieved >90% Ad-βgal gene expression levels whereas rat bladders infected with 4×10^9 vp adenovirus had Ad-βgal gene expression levels range from 30% to 50%. […] Efficacy of Dodecyl-β-D-Maltoside as a Pretreatment Agent Prior to Adenovirus Infection of Mice Bladder Urothelium • Species: Female Balb/c Mouse (Taconic Laboratory)—2/group • Study Design: To test DDM from two different suppliers as pretreatment agents to enhance the adenovirus infection of mice bladder urothelium in a large group of animals. • Dose/Route: […]

Ad5-LacZ adenovirus [6] = assay: Study #1: compatibility of Ad5-LacZ with ethanol and urine (plaque assay); type: physicochemical; settings: 40% ethanol, 37° C. one hour
Protocol: In this study, each sample was incubated at 37° C. for one hour before the plaque assay started.

Ad5-LacZ adenovirus [7] = assay: Study #2: compatibility of Ad5-LacZ with ethanol (plaque assay); type: physicochemical; settings: higher concentrations of ethanol (i.e., ≧10%)
Protocol: For this study, each sample was incubated at 37° C. before the plaque assay started.

bladder epithelium [8] = tested on: bladder epithelium
Protocol: A study was conducted to evaluate the effect of ethanol pretreatment on adenovirus-mediated gene transfer and expression in the bladder epithelium of rodents.
Ad-βgal virus was made as a frozen formulation using standard conditions known in the art for freezing and formulation of adenovirus. The vehicle for the virus arm was PBS plus 10% glycerol.
80 female BALB/c mice were used for this study. Female animals are chosen because of the ease of urethral cannulation and vesicle instillation. The mice were approximately 10 to 12 weeks on the day of the start of the experiment.
Animals were anesthetized with isoflurane and a 24 g catheter introduced through the urethra into the bladder.
Residual urine was emptied and the bladder was flushed 3 times with 100-150 μl each of PBS.
Ad-βgal viruses diluted in 0.1 ml of PBS-10% glycerol were administered intravesically into the bladder and retained in the bladder for 45 minutes. A knot was placed around the urethral orifice to prevent leakage of the virus and to prevent the catheter from dislodging.
Treatment was stopped by withdrawing the virus and flushing the bladders 3 times with 100-150 μl of PBS. […]
Animals were killed 48 hours after treatment. […] Transgene expression in the luminal epithelium of the longitudinally opened bladders was empirically determined.

[9] = 0.02% pre-treatment for 5 minutes
[10] = 0.05% pre-treatment for 5 minutes
[11] = 0.2% pre-treatment for 5 minutes

| Compound | Transduction Efficacy (bladder epithelium [1]) | response class (level of transduction) (bladder epithelium [3]) | effect on transduction (in words) (bladder epithelium [3]) | other results |
| --- | --- | --- | --- | --- |
| polyethyleneglycoldodecyl ether [polidocanol, reference compound] | ++ (“++” means 25-50% transduction efficacy) | strongest response |  | Average pfu/mL (adenovirus [2]; 25° C., 2 hours): 1.02E+10 pfu/mL; Ratio vp/pfu (adenovirus [2]; 25° C., 2 hours): 21 vp/pfu; Average pfu/mL (adenovirus [2]; 37° C., 1 hour): 1.22E+10 pfu/mL; Ratio vp/pfu (adenovirus [2]; 37° C., 1 hour): 17 vp/pfu; compatibility with the adenovirus (in words) (adenovirus [2]; under the experimental conditions of Table 5): compatible with the adenovirus; pathologists report (bladder; [9]): intact mucosa; pathologists report (bladder; [10]): minimal submucosal edema; pathologists report (bladder; [11]): erosions and focal ulcer as well as mucosal compromise; transduction of the urothelium (bladder epithelium [3]; [9]): 10-20%; transduction of the urothelium (bladder epithelium [3]; [10]): 30-40%; transduction of the urothelium (bladder epithelium [3]; [11]): 50-80% |
| CCCCCCCCCCCCO[C@@H]1O[C@H](CO)[C@@H](O)[C@H](O)[C@H]1O [n-dodecyl-β-D-glucopyranoside] |  |  | little or no enhancement of transduction |  |
| Triton X-100 | + (“+” means 10-25% transduction efficacy) | weak responders (had significantly less stained area compared to the ethanol control group) | found to enhance transduction |  |
| CCCCCCCCCCCCCOC1OC(CO)C(OC2OC(CO)C(O)C(O)C2O)C(O)C1O [n-Tridecyl-β-D-Maltoside] | +++ (“+++” means 50-75% transduction efficacy) |  |  |  |
| CCCCCCCCCCCCOS(=O)(=O)O [Sodium dodecyl sulfate, sodium dodecyl sulfate] | ++++ (“++++” means >75% transduction efficacy) | strongest response |  | degradation of the virus (AEX) (adenovirus [4]; SDS above or equal to 0.025%, 15-30 minutes): will rapidly degrade the virus; particle quality or quantity by AEX method (adenovirus [4]; SDS at 0.0125%, 30 minutes of incubation): did not reduce the particle quality or quantity; effect on adenovirus (in words) (adenovirus (Ad-LacZ)): will inactivate the virus; removal of GAG layer of bladder epithelium [5]: effective to remove GAG layer of bladder epithelium |
| CCCCCCCCCCOS(=O)(=O)[O-].[Na+] [Sodium decyl sulfate] | + (“+” means 10-25% transduction efficacy) |  |  |  |
| OC[C@H]1O[C@H](O[C@H]2[C@H](O)[C@@H](O)[C@H](OCCCCCCC3CCCCC3)O[C@@H]2CO)[C@H](O)[C@@H](O)[C@@H]1O [6-cyclohexylhexyl-β-D-maltoside] | ++++ (“++++” means >75% transduction efficacy) | strongest response | increased transduction significantly |  |
| sucrose monolaurate | ++++ (“++++” means >75% transduction efficacy) |  |  |  |
| CCO [ethanol] |  |  |  | effect on the virus (in words) (Ad5-LacZ adenovirus [6]): inactivated most of the virus; effect on adenovirus (in words) (Ad5-LacZ adenovirus [7]): partial to complete inactivation of adenovirus; transduction (bladder epithelium [8]; 15%, 20%, 25%, and 30 wt. % ethanol pretreatment for 20 minutes, then Ad-βgal 45 min, 48 hours): 10-20%; transduction (bladder epithelium [8]; ethanol percentage as high as 30%, reference pre-treatment): 10-20% |
| CCCCCCCCCCCCc1ccc(S(=O)(=O)[O-])cc1.[Na+] [sodium salt of dodecyl-benzenesulfonic acid] | + (“+” means 10-25% transduction efficacy) | strongest response | enhanced the transduction of Ad-LacZ in murine bladders | transduction of the urothelium (bladder epithelium [3]; [11]): 20-40% |
| CCCCCCCCCCO[C@@H]1O[C@H](CO)[C@@H](O[C@H]2O[C@H](CO)[C@@H](O)[C@H](O)[C@H]2O)[C@H](O)[C@H]1O [n-decyl-β-D-maltoside] | + (“+” means 10-25% transduction efficacy) | weak responders (had significantly less stained area compared to the ethanol control group) | only a slight effect on transduction |  |
| CCCCCCCCCCCCCCO[C@@H]1O[C@H](CO)[C@@H](O[C@H]2O[C@H](CO)[C@@H](O)[C@H](O)[C@H]2O)[C@H](O)[C@H]1O [n-Tetradecyl-β-D-Maltoside] | ++ (“++” means 25-50% transduction efficacy) |  |  |  |
| CCCCCCCCCCCCO[C@H]1O[C@H](CO)[C@@H](O[C@H]2O[C@H](CO)[C@@H](O)[C@H](O)[C@H]2O)[C@H](O)[C@H]1O [n-Dodecyl-α-D-Maltoside, n-dodecyl-α-D-maltoside] | ++++ (“++++” means >75% transduction efficacy) |  |  |  |
